From patent publication US20250099420A1, “SMALL MOLECULE MODULATORS OF GPR139 COMPLEX” (University of Florida Research Foundation, Incorporated, priority 2022, published 2025)
Where two headings read alike, the source gives them in different places.

Legend:
parental HEK cells = assay: HEK parental Agonist Counterscreen Assay (non-transfected cells); type: cell-based; details: for Averaged Max % Response (±St. Dev.): activity relative to known control
Description: The high control for the agonist counterscreen was Forskolin not acetylcholine.

GPR139 = target: T1, GPR139 (Homo sapiens, UniProt Q6DWJ6); assay: GPR139 Agonist titration / agonist counterscreen assay (calcium detection, HEK-GPR139 cells); type: cell-based; set-up: expressed in transfected cells; host or cells: HEK Aequorin cells, Maxcyte transient transfection; details: GPR139 Agonist Activity; for Averaged Max % Response (±St. Dev.): activity relative to known control; for EC50: read-out: EC50
T1 sequence (Q6DWJ6 1-353): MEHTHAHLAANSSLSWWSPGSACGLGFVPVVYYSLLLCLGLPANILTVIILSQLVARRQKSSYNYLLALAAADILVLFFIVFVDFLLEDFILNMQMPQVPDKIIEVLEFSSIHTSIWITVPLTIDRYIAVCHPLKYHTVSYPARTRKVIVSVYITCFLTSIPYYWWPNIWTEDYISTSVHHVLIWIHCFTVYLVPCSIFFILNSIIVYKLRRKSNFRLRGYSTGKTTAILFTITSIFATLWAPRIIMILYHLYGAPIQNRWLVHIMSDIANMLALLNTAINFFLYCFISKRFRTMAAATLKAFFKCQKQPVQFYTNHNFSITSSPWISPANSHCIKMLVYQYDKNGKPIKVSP
Experimental: GPR activity was assessed using a calcium detection assay. […] Negative control samples were treated with DMSO. […] Intracellular calcium was measured using Calcium 5.

[1] = Homo sapiens, HEK293, HEK Agonist Activity, parental non-transfected HEK cells
[2] = values printed in E-notation without unit
[3] = Homo sapiens, HEK293, HEK Agonist Activity section of Table 4 (parental HEK counterscreen)
[4] = HEK Agonist Activity section of Table 4 (parental HEK counterscreen)

| SMILES | Averaged Max % Response (±St. Dev.) (GPR139) [%] | Lipophilic Efficiency (logD) (GPR139; based on logD) | Lipophilic Efficiency (logP) (GPR139; based on logP) | Hill Slope (GPR139; fitted dose-response curve) | Efficiency Ligand (GPR139; ligand efficiency) | EC50 (GPR139; [2]) [nM] | Lipophilic Efficiency (logD) (parental HEK cells; HEK Agonist Activity section) | Lipophilic Efficiency (logP) (parental HEK cells; HEK Agonist Activity section) | Averaged Max % Response (±St. Dev.) (parental HEK cells; HEK Agonist Activity section) [%] | EC50 (parental HEK cells; [3]) [nM] | Efficiency Ligand (GPR139) | Hill Slope (GPR139) | Lipophilic Efficiency (logD) (GPR139) | Lipophilic Efficiency (logP) (GPR139) | EC50 (GPR139; HEK-GPR139 cells) [nM] | EC50 (parental HEK cells; [4]) [nM] | other results |
| --- | --- | --- | --- | --- | --- | --- | --- | --- | --- | --- | --- | --- | --- | --- | --- | --- | --- |
| COc1ccc(NC(=O)NCCOc2cccc3ccccc23)cc1OC [SR-01000223498] | 115.59 ± 14.29 | 4.05 | 4.05 | 0.81 | 0.39 | 33.9 | – | – | – | – | – | – | – | – | – | – | Lipophilic Efficiency (logD) (parental HEK cells; HEK Agonist Activity): 1.43; Lipophilic Efficiency (logP) (parental HEK cells; HEK Agonist Activity): 1.43; Averaged Max % Response (±St. Dev.) (parental HEK cells; HEK Agonist Activity): 15.10 ± 2.28%; EC50 (parental HEK cells; [1]): > 14100 nM |
| Cc1c(C(=O)NC(C)(C)CO)cnn1-c1ncc2c(n1)-c1ccccc1CC2 [SR-01000239973] | 105.15 ± 8.65 | 5.11 | 5.11 | 0.92 | 0.39 | 15.7 | – | – | – | – | – | – | – | – | – | – | Lipophilic Efficiency (logD) (parental HEK cells; HEK Agonist Activity): 2.16; Lipophilic Efficiency (logP) (parental HEK cells; HEK Agonist Activity): 2.16; Averaged Max % Response (±St. Dev.) (parental HEK cells; HEK Agonist Activity): −7.52 ± 3.99%; EC50 (parental HEK cells; [1]): > 14100 nM |
| CCOc1ccc(C(=O)NCCc2ccc(F)cc2)cc1OCC [SR-01000243797] | 105.74 ± 4.40 | 3.09 | 3.09 | 1.05 | 0.39 | 205 | 1.25 | 1.25 | 10.10 ± 12.81 | > 14100 | – | – | – | – | – | – | – |
| COC(=O)c1ccc(NC(=O)CNC(=O)C2CCCCC2)c(C)c1 [SR-01000246445] | 77.11 ± 5.52 | – | – | – | – | – | 2.12 | 2.12 | 30.43 ± 4.82 | > 14100 | 0.36 | 1.22 | 3.52 | 3.52 | 554 | – | – |
| CCOC(=O)c1ccc(NC(=O)Cn2c(C)c(C=O)c3ccccc32)cc1 [SR-01000248261] | 81.40 ± 9.66 | – | – | – | – | – | 1.37 | 1.37 | 19.46 ± 6.76 | – | 0.30 | 1.06 | 2.28 | 2.28 | 1700 | > 14100 | – |
| CCOC(=O)c1cccc(NC(=O)Cc2cccc3ccccc23)c1 [SR-01000267161] | 105.03 ± 11.34 | – | – | – | – | – | 0.46 | 0.46 | 13.91 ± 0.63 | – | 0.33 | 0.55 | 1.49 | 1.49 | 1300 | > 14100 | – |
| Cc1c(C=O)c2ccccc2n1CC(=O)NCc1ccccc1 [SR-01000269911] | 88.11 ± 5.39 | – | – | – | – | – | 2.02 | 2.02 | 5.27 ± 9.17 | > 14100 | 0.37 | 1.69 | 3.22 | 3.22 | 898 | – | – |
| COc1ccc(CCNC(=O)Nc2ccc(C)cc2)cc1 [SR-01000271555] | 124.00 ± 20.16 | 3.11 | 3.11 | 0.62 | 0.44 | 260 | 1.38 | 1.38 | 14.71 ± 4.12 | > 14100 | – | – | – | – | – | – | – |
| CCOC(=O)c1ccc(CSc2nnc(N)s2)cc1 [SR-01000273754] | 86.25 ± 6.17 | 4.03 | 4.03 | 0.89 | 0.51 | 118 | 1.95 | 1.95 | 2.38 ± 11.60 | – | – | – | – | – | – | > 14100 | – |
| COc1ccc(OC)c(NC(=O)NNC(=O)C(C)Oc2ccc(Cl)cc2Cl)c1 (stereo not drawn) [SR-01000276878] | 97.36 ± 11.63 | 4.40 | 4.36 | 0.75 | 0.38 | 23.9 | – | – | – | – | – | – | – | – | – | – | Lipophilic Efficiency (logD) (parental HEK cells; HEK Agonist Activity): 1.62; Lipophilic Efficiency (logP) (parental HEK cells; HEK Agonist Activity): 1.58; Averaged Max % Response (±St. Dev.) (parental HEK cells; HEK Agonist Activity): 6.40 ± 8.50%; EC50 (parental HEK cells; [1]): > 14100 nM |
| COc1ccc(C)cc1NC(=O)NNC(=O)C(C)Oc1ccc(F)cc1Cl (stereo not drawn) [SR-01000277633] | 93.18 ± 13.55 | – | – | – | – | – | 1.40 | 1.38 | −5.71 ± 6.76 | > 14100 | 0.33 | 1.11 | 2.85 | 2.82 | 508 | – | – |
| O=C(CNc1nnc(CCCOc2ccc(Cl)cc2Cl)o1)Nc1nccs1 [SR-01000280669] | 83.43 ± 6.82 | – | – | – | – | – | 1.27 | 1.27 | −0.76 ± 4.25 | > 14100 | 0.33 | 0.56 | 2.70 | 2.70 | 516 | – | – |
| COc1ccc(CSc2nnc(-c3cccnc3)n2N)cc1 [SR-01000284323] | 94.97 ± 7.83 | – | – | – | – | – | 3.34 | 3.34 | 3.28 ± 6.64 | – | 0.41 | 0.57 | 4.90 | 4.90 | 386 | > 14100 | – |
| Cc1ccc(SCC(=O)NNC(=O)c2cccs2)cc1 [SR-01000286062] | 99.20 ± 4.08 | 4.23 | 4.23 | 0.78 | 0.48 | 132 | 2.20 | 2.20 | 8.31 ± 5.73 | – | – | – | – | – | – | > 14100 | – |
| O=C(CSc1ccc(Cl)cc1)NNC(=O)c1ccc([N+](=O)[O-])cc1 [SR-01000286858] | 111.41 ± 5.44 | – | – | – | – | – | 2.09 | 2.08 | 4.98 ± 9.07 | > 14100 | 0.38 | 0.60 | 3.68 | 3.67 | 366 | – | – |
| O=c1cc(-c2ccccc2)[nH]c2nc(OCc3cccc([N+](=O)[O-])c3)nn12 [SR-01000289377] | 79.17 ± 5.74 | – | – | – | – | – | 1.72 | 1.72 | −0.70 ± 7.45 | > 14100 | 0.32 | 1.25 | 3.01 | 3.01 | 727 | – | – |
| O=C(CSCc1ccc(Cl)cc1Cl)NNC(=O)c1ccccc1 [SR-01000295701] | 126.44 ± 4.55 | 5.48 | 5.47 | – | 0.56 | < 0.716 | – | – | – | – | – | – | – | – | – | – | Lipophilic Efficiency (logD) (parental HEK cells; HEK Agonist Activity): 1.19; Lipophilic Efficiency (logP) (parental HEK cells; HEK Agonist Activity): 1.17; Averaged Max % Response (±St. Dev.) (parental HEK cells; HEK Agonist Activity): −4.01 ± 2.60%; EC50 (parental HEK cells; HEK Agonist Activity, parental non-transfected HEK cells): > 14100 nM |
| O=C(CSCc1cccc2ccccc12)Nc1c[nH]c(=O)[nH]c1=O [SR-01000296110] | 96.78 ± 9.37 | – | – | – | – | – | 3.56 | 3.55 | 3.41 ± 3.54 | – | 0.35 | 1.48 | 4.77 | 4.76 | 857 | > 14100 | – |
| Cc1c(Br)c([N+](=O)[O-])nn1CC(=O)NCCc1ccc(Cl)cc1 [SR-01000298170] | 119.00 ± 5.31 | 4.08 | 4.08 | 0.27 | 0.46 | 31.6 | – | – | – | – | – | – | – | – | – | – | Lipophilic Efficiency (logD) (parental HEK cells; HEK Agonist Activity): 1.44; Lipophilic Efficiency (logP) (parental HEK cells; HEK Agonist Activity): 1.44; Averaged Max % Response (±St. Dev.) (parental HEK cells; HEK Agonist Activity): 10.66 ± 2.50%; EC50 (parental HEK cells; [1]): > 14100 nM |
